Data on three compounds can be found in patent US6060077A, “Unit galenical formulation for local hormonotherapy of vaginal dryness” (priority 1995, dated 2000).

“Also recorded” adds a separate entry of the source.

Data set [1] is described as follows: plasma estradiol after vaginal administration (pharmacokinetic analysis). In kind it is in vivo, human (patients). The procedure:
Pharmacokinetic analysis: From a pharmacokinetic viewpoint, the plasmic estradiol concentrations remained unquantifiable in the group of subjects after administration of low doses (2.5 μg and 5 μg) and in half of the subjects at a high dose (10 μg).
(§1) General conclusion: After a single vaginal administration of a soft capsule with 2.5 μg, 5 μg and 10 μg doses of 17β-estradiol, clinical tolerance was excellent for the group of six subjects included in the trial. Biological tolerance was also excellent.

Data set [2] is described as follows: plasma estrone after vaginal administration of 17β-estradiol. It is filed as in vivo, human (patients). Here is the method: In all cases, the estrone concentrations never exceeded 30 pg/ml.
as §1

Data set [3] concerns receptors with high estradiol affinity in the vaginal epithelium. To be noted: cited from earlier work; for affinity for vaginal epithelium receptors (decreasing order): female.
Data set [4] relates to vaginal estrogenic receptors. To be noted: cited from earlier work; for agonist/antagonist properties: estrogenic receptors; for effect on endogenous estradiol: in the presence of endogenous estrogen.
Data set [5] relates to vulvo-vaginal mucous membrane. To be noted: in vivo; cited from earlier work.
In data set [6] the test system is vaginal mucous membrane / endometrium. The following applies: 25 μg of 17β-estradiol per vaginal tablet, cited from earlier work.
Where [7] appears, read: 10 μg, micronized free form, vaginal.

Turning to `C[C@]12CC[C@@H]3c4ccc(O)cc4CC[C@H]3[C@@H]1CC[C@@H]2O` [17β-estradiol], the “vaginal absorption of estradiol from soft capsules” value in data set [1] (2.5 μg to 10 μg doses of 17β-estradiol) was “substantially zero”. Also, in data set [1] (setting [7]), the systemic passage result is on record as “only slight systemic passage is observed” and the “time of plasmic peak after administration” value is on record as “about one”. The “vaginal resorption of estradiol” value in data set [1] (capsules with 2.5 μg and 5 μg doses of 17β-estradiol) is given as “zero”. Also, in data set [2] (capsule with 10 μg dose of 17β-estradiol, the other subjects), the “plasmic estrone amounts after vs before treatment” value is “comparable with the amounts measured before treatment”. In addition, the “estrone concentrations after vs before treatment” value in data set [2] (in general, after 17β-estradiol 2.5 μg, 5 μg and 10 μg, soft capsule) is recorded as “of the same order of magnitude as those measured before treatment”. In addition, in data set [2] (in vivo), the “proportionality between estrone Cmax or SSC and the administered dose” value is given as “no proportionality”. Further, the “affinity for vaginal estrogenic receptors” value in data set [3] (in words) is given as “high affinity”. For the same compound, the “affinity for vaginal epithelium receptors (decreasing order)” value (from here on “affinity … (decreasing order)”) in data set [3] was 17β-estradiol>estriol>estrone. In data set [4], the agonist/antagonist properties entry is “physiological estrogenic agonist; also recorded: pure agonist; also recorded: complete agonist” and the “effect on endogenous estradiol” value was “adding effects in the presence of endogenous estrogen”. In addition, in data set [5], the local blood flow entry was “increase”; the “quantity of vaginal secretions” value is “increase”; the transvaginal potential difference entry is “increase the transvaginal potential difference”; the “trophic effect in the vulvo-vaginal mucous membrane” value was “recognized and has been widely described”. In addition, the “vaginal pH” value in data set [5] was “reduce the vaginal pH”. In data set [6] (daily), the “cytological, histological and clinical improvement in the vaginal mucous membrane” value was “desired cytological, histological and clinical improvement”; the endometrial proliferation entry was “endometrial proliferation was noted in certain patients”. Moreover, the “systemic passage of 17β-estradiol” value in data set [6] (indicated by endometrial proliferation) is recorded as “systemic passage”.
Regarding `C[C@]12CC[C@@H]3c4ccc(O)cc4CC[C@H]3[C@@H]1C[C@@H](O)[C@@H]2O` [estriol], in data set [3], the “affinity … (decreasing order)” value was 17β-estradiol>estriol>estrone. Further, the “intrinsic activity relative to 17β-estradiol” value in data set [4] (compared with 17β-estradiol) was “less active”. In addition, in data set [4], the agonist/antagonist properties result is “partially agonist properties and even antagonist properties”; the “effect on endogenous estradiol” value is “antagonistic effect on endogenous estradiol”.
Take `C[C@]12CC[C@@H]3c4ccc(O)cc4CC[C@H]3[C@@H]1CCC2=O` [estrone]: in data set [3], the “affinity … (decreasing order)” value is 17β-estradiol>estriol>estrone.
